Assay results reported in ChEMBL document CHEMBL1629460, “Image-based high-throughput drug screening targeting the intracellular stage of Trypanosoma cruzi, the agent of Chagas' disease” (Antimicrob Agents Chemother, 2010).

What was measured:
Trypanosoma cruzi [1] = experiment: Antitrypanosomal activity against Trypanosoma cruzi Sylvio-X10/7 infected in BESM cells measured after 88 hrs postinfection by HTS assay; assay type: functional, organism-based; conditions: Sylvio-X10/7, BESM
Trypanosoma cruzi [2] = experiment: Antitrypanosomal activity against Trypanosoma cruzi PSD-I infected in BESM cells measured after 88 hrs postinfection by HTS assay; assay type: functional, organism-based
[3] = Cytotoxicity against BESM cells after 88 hrs by HTS assay; assay type: ADME, cell-based; conditions: Bos taurus
Trypanosoma cruzi [4] = experiment: Antitrypanosomal activity against Trypanosoma cruzi CA-I/72 infected in BESM cells measured after 88 hrs postinfection by HTS assay; assay type: functional, organism-based; conditions: CA-I/72, BESM
[5] = Selectivity window, ratio of EC50 for BESM cells to EC50 for Trypanosoma cruzi amastigotes infected in BESM cells; design: reference not given here
Trypanosoma cruzi [6] = experiment: Antitrypanosomal activity against Trypanosoma cruzi amastigotes infected in BESM cells measured after 88 hrs postinfection by HTS assay; assay type: functional, organism-based

SMILES	EC50 (Trypanosoma cruzi [1]) [µM]	EC50 (Trypanosoma cruzi [2]) [µM]	EC50 [3] [µM]	EC50 (Trypanosoma cruzi [4]) [µM]	Ratio EC50 [5]	EC50 (Trypanosoma cruzi [6]) [µM]
CN1CCN(C(=O)N[C@@H](Cc2ccccc2)C(=O)N[C@H](/C=C/S(=O)(=O)c2ccccc2)CCc2ccccc2)CC1 [K-777]	3	3	> 20	4.2	–	–
CC1CS(=O)(=O)CCN1/N=C/c1ccc([N+](=O)[O-])o1 (stereo not given) [NIFURTIMOX]	0.7	2.1	> 10	1.2	–	–
CC[C@@H]([C@H](C)O)n1ncn(-c2ccc(N3CCN(c4ccc(OC[C@@H]5CO[C@@](Cn6cncn6)(c6ccc(F)cc6F)C5)cc4)CC3)cc2)c1=O [POSACONAZOLE]	0.08	0.13	> 2	0.2	–	–
CCC1=C[C@@H]2CN(C1)Cc1c([nH]c3ccccc13)[C@@](C(=O)OC)(c1cc3c(cc1OC)N(C)[C@H]1[C@@](O)(C(=O)OC)[C@H](OC(C)=O)[C@]4(CC)C=CCN5CC[C@]31[C@@H]54)C2 [VINORELBINE]	–	–	> 50	–	>5	10
